For 22 compounds, IC50 and Activity results are on record in ChEMBL document CHEMBL2406996, “Bioactive ent-kaurane diterpenoids from Isodon rosthornii” (J Nat Prod, 2013).

SMILES strings stand for the structures. Residues, ends and D or L forms follow the SMILES beside them. *: point of attachment. Cbz = O=C(OCc1ccccc1)* Bounds are passed on as bounds.

Series [1] has as its system RAW264.7. Put plainly: Antiinflammatory activity in mouse RAW264.7 cells assessed as inhibition of LPS-induced nitric oxide production after 18 hrs by Griess method. In kind it is functional, cell-based. The following applies: RAW264.7, 18 h.
The next series relates to SW480. Put plainly: Cytotoxicity against human SW480 cells after 48 hrs by MTT assay. It counts as functional, cell-based. The following applies: SW480, 48 h.
The test system of another series is MCF7. Put plainly: Cytotoxicity against human MCF7 cells after 48 hrs by MTT assay. In kind it is functional, cell-based. The settings on record: MCF7, 48 h.
For series [2], the system named is RAW264.7. Put plainly: Cytotoxicity against mouse RAW264.7 cells after 18 hrs by MTS assay. It counts as cell-based. The following applies: raw264.7, 18 h.
Another series deals with SMMC-7721. Put plainly: Cytotoxicity against human SMMC7721 cells after 48 hrs by MTT assay. The following applies: SMMC-7721, 48 h. In kind it is functional, cell-based.
A further series deals with HL-60. Put plainly: Cytotoxicity against human HL60 cells after 48 hrs by MTT assay. It counts as functional, cell-based. The following applies: HL-60, 48 h.
The test system of a further series is A549. Put plainly: Cytotoxicity against human A549 cells after 48 hrs by MTT assay. It counts as functional, cell-based. The following applies: A549, 48 h.

As to `C=C1[C@H]2C[C@H](O)[C@@H]3[C@](C2)(C(=O)O[C@@H]2CCC(C)(C)[C@H]4[C@H](O)O[C@H](OC)[C@@]432)[C@@H]1OC(C)=O` (relative stereo), the IC50 was 1.5 µM with RAW264.7 [1]; 3.3 µM in the series on SW480; 3.5 µM with MCF7; above 10 µM in the series on SMMC-7721; 4.3 µM with HL-60; above 10 µM with A549. Also, in the series on RAW264.7 [2], the Activity result was “Non-toxic”.
Consider `C=C1C(=O)[C@]23C[C@H]1CC=C2[C@@]12CO[C@@]3(O)[C@@H](O)[C@@H]1C(C)(C)CC[C@@H]2O`, for which the concentration for half-maximal inhibition (IC50) in the series on RAW264.7 [1] came to 2 µM; with SW480, 3.4 µM; with MCF7, 3.3 µM; with SMMC-7721, 3.5 µM; in the series on HL-60, 8.8 µM; in the series on A549, 4.6 µM. Moreover, the Activity result with RAW264.7 [2] is “Non-toxic”.
On to `C=C1C(=O)[C@]23[C@H](O)[C@H]1C[C@@H](O)[C@H]2[C@]12CCCC(C)(C)[C@H]1[C@H](O)[C@@]3(O)OC2`, for which the concentration for half-maximal inhibition (IC50) was 1.7 µM in the series on RAW264.7 [1]; 2.5 µM with SW480; 5.1 µM with MCF7; 4.5 µM with SMMC-7721; 3.5 µM in the series on HL-60; 8.6 µM in the series on A549. The Activity entry in the series on RAW264.7 [2] is reported as “Non-toxic”.
As to `C=C1[C@@H](O)[C@@]23C(=CC[C@@H]1[C@H]2O)[C@@]12CO[C@@]3(O)[C@@H](O)[C@@H]1C(C)(C)CC[C@@H]2O`, the IC50 is above 25 µM in the series with RAW264.7 [1]; above 10 µM with SW480; above 10 µM in the series on MCF7; above 10 µM in the series with SMMC-7721; above 10 µM in the series on HL-60; above 10 µM in the series with A549. The Activity entry in the series with RAW264.7 [2] is listed as “Non-toxic”.
Turning to `C=C1C(=O)[C@]23[C@H](OC(C)=O)[C@H]1C[C@H](OC(C)=O)[C@H]2[C@]12CCCC(C)(C)[C@H]1[C@H](O)[C@]3(O)OC2`, the half-inhibitory concentration (IC50) in the series on RAW264.7 [1] was 6.3 µM; with SW480, 3.2 µM; in the series on MCF7 it was above 10 µM; in the series with SMMC-7721, above 10 µM; in the series with HL-60, 4.6 µM; in the series with A549, above 10 µM. Also, in the series on RAW264.7 [2], the Activity result was “Non-toxic”.
Turning to `C=C1C(=O)[C@]23C[C@H]1CC[C@H]2[C@@]12CO[C@]3(O)[C@@H](O)[C@@H]1C(C)(C)CC[C@@H]2O`, the IC50 in the series on RAW264.7 [1] came to 3.4 µM; in the series on SW480, 3.2 µM; with MCF7 it was 4.2 µM; in the series on SMMC-7721 it was 5.9 µM; in the series with HL-60 it was 7.9 µM; with A549 it was 5.6 µM. Further, the Activity entry in the series on RAW264.7 [2] is recorded as “Non-toxic”.
`C=C1[C@@H](O)[C@]23[C@H](O)[C@H]1CC[C@H]2[C@@]12C(=O)O[C@]3(O)[C@@H](O)[C@@H]1C(C)(C)CC[C@@H]2O`: the IC50 with RAW264.7 [1] stood at 6.1 µM. The Activity result with RAW264.7 [2] was “Non-toxic”.
As to `C=C1C(=O)[C@]23[C@H](O)[C@H]1CC[C@H]2[C@@]12[C@@H](OC)O[C@]3(O)[C@@H](O)[C@@H]1C(C)(C)CC[C@@H]2O`, the IC50 in the series with RAW264.7 [1] is above 25 µM; in the series on SW480 it was 9.4 µM; in the series with MCF7, above 10 µM; in the series with SMMC-7721 it was above 10 µM; with HL-60 it was 7 µM; in the series on A549, above 10 µM. Moreover, the Activity result in the series on RAW264.7 [2] was “Non-toxic”.
As for `C=C1[C@@H](O)[C@]23[C@H](O)[C@H]1CC[C@H]2[C@@]12C(OC)O[C@]3(O)[C@@H](O)[C@@H]1C(C)(C)CC[C@@H]2O` (stereo partly specified), the IC50 in the series on RAW264.7 [1] is above 25 µM; in the series with SW480, above 10 µM; in the series on MCF7, above 10 µM; with SMMC-7721 it was above 10 µM; with HL-60, 5.3 µM; in the series on A549, above 10 µM. Besides, in the series with RAW264.7 [2], the Activity result is “Non-toxic”.
Turning to `C[C@@H]1[C@@H]2C[C@H](O)[C@H]3[C@]45CCCC(C)(C)[C@H]4[C@H](O)[C@](O)(OC5)[C@@]3([C@@H]1O)[C@@H]2O`, the half-maximal inhibitory concentration (IC50) was above 25 µM in the series with RAW264.7 [1]; above 10 µM with SW480; above 10 µM with MCF7; above 10 µM in the series on SMMC-7721; above 10 µM in the series on HL-60; above 10 µM with A549. For the same compound, in the series on RAW264.7 [2], the Activity entry is on record as “Non-toxic”.
In the case of `C=C1C(=O)[C@]23[C@H](O)[C@H]1CC[C@H]2[C@@]12CO[C@]3(O)[C@@H](O)[C@@H]1C(C)(C)CC[C@@H]2O` [ORIDONIN], the half-inhibitory concentration (IC50) is 5.2 µM in the series on RAW264.7 [1]; above 10 µM with SW480; above 10 µM in the series with MCF7; above 10 µM with SMMC-7721; 2.5 µM in the series with HL-60; above 10 µM with A549. The Activity result in the series with RAW264.7 [2] is “Non-toxic”.
For the compound `C=C1C(=O)[C@]23[C@H](O)[C@H]1CC[C@H]2[C@@]12CO[C@@]3(O)[C@@H](O)[C@@H]1C(C)(C)CC[C@@H]2OC(C)=O` [LASIOKAURIN], the IC50 in the series with RAW264.7 [1] turned out to be 1.9 µM; in the series on SW480, 2.4 µM; with MCF7, 2.5 µM; with SMMC-7721, 2.7 µM; in the series with HL-60, 1.8 µM; in the series with A549 it was 6.7 µM. The Activity result in the series on RAW264.7 [2] is “Non-toxic”.
For the compound `CC(C)C[C@@H](C=O)NC(=O)[C@H](CC(C)C)NC(=O)[C@H](CC(C)C)NC(=O)OCc1ccccc1` [MG-132] (Cbz-Leu-Leu-Leu-aldehyde), the IC50 with RAW264.7 [1] is 0.1 µM. Also, the Activity result in the series with RAW264.7 [2] is “Non-toxic”.
With `C=C1[C@H]2C[C@@H]3OC(=O)[C@@H]4C(C)(C)CC[C@@H]5OC(=O)[C@](C2)([C@@H]1O)[C@@H]3[C@]54C=O`, the half-maximal inhibitory concentration (IC50) with RAW264.7 [1] is 2 µM; with SW480 it was above 10 µM; in the series with MCF7 it was above 10 µM; in the series with SMMC-7721, above 10 µM; in the series with HL-60 it was 6.1 µM; in the series on A549 it was above 10 µM. The Activity entry with RAW264.7 [2] was “Non-toxic”.
In the case of `C=C1C(=O)[C@]23[C@H](O)[C@H]1CC[C@H]2[C@@]12C(OC)O[C@@]3(O)[C@@H](O)[C@@H]1C(C)(C)CC[C@H]2O` (stereo partly specified) [RABDOTERNIN E], the IC50 is 2.3 µM in the series on RAW264.7 [1]; 4.1 µM in the series with SW480; above 10 µM with MCF7; above 10 µM with SMMC-7721; 2.6 µM in the series on HL-60; above 10 µM in the series with A549. Further, in the series with RAW264.7 [2], the Activity entry is recorded as “Non-toxic”.
Consider `CC(=O)O[C@H]1C(=O)[C@@]2(C)[C@H]([C@H](OC(=O)c3ccccc3)[C@]3(O)C[C@H](OC(=O)[C@H](O)[C@@H](NC(=O)c4ccccc4)c4ccccc4)C(C)=C1C3(C)C)[C@]1(OC(C)=O)CO[C@@H]1C[C@@H]2O` [PACLITAXEL], for which the half-maximal inhibitory concentration (IC50) with SW480 is 0.04 µM; in the series on MCF7 it was below 0.008 µM; in the series with SMMC-7721, below 0.008 µM; with HL-60 it was below 0.008 µM.
As for `C=C1[C@H]2CC3=C4[C@](C2)(C(=O)O[C@H]2CCC(C)(C)[C@@H]([C@@H](O)O3)[C@]42C=O)[C@@H]1OC(C)=O`, the half-maximal inhibitory concentration (IC50) in the series on RAW264.7 [1] was above 25 µM; with SW480, above 10 µM; with MCF7 it was above 10 µM; in the series with SMMC-7721 it was above 10 µM; in the series on HL-60, above 10 µM; in the series on A549 it was above 10 µM. In the series with RAW264.7 [2], the Activity result is “Non-toxic”.
In the case of `C=C1C(=O)[C@@]23[C@@H]4OC(C)(C)O[C@@]25OC[C@]2(CCCC(C)(C)[C@H]2[C@@H]5O)[C@@H]3[C@@H](O)C[C@@H]14`, the concentration for half-maximal inhibition (IC50) in the series with RAW264.7 [1] came to 1.1 µM; in the series on SW480, 2 µM; with MCF7, 1.8 µM; in the series with SMMC-7721, 2.6 µM; in the series with HL-60 it was 1.5 µM; in the series on A549 it was 3.4 µM. Also, the Activity entry in the series on RAW264.7 [2] was “Non-toxic”.
For the compound `C=C1C(=O)[C@]23[C@H](O)[C@H]1CC[C@H]2[C@@]12[C@H](OCC)O[C@@]3(O)[C@@H](O)[C@@H]1C(C)(C)CC[C@@H]2O` (relative stereo), the half-inhibitory concentration (IC50) in the series with RAW264.7 [1] is 3.9 µM; in the series with SW480, 7.8 µM; in the series with MCF7 it was 8.4 µM; in the series on SMMC-7721 it was above 10 µM; with HL-60, 5.9 µM; with A549, above 10 µM. The Activity entry in the series on RAW264.7 [2] is listed as “Non-toxic”.
As to `C[C@@H]1[C@@H]2CC[C@H]3[C@]45CCCC(C)(C)[C@H]4[C@H](O)[C@](O)(OC5=O)[C@@]3([C@@H]1O)[C@@H]2O`, the IC50 with RAW264.7 [1] is above 25 µM; in the series with SW480, above 10 µM; in the series with MCF7, above 10 µM; in the series with SMMC-7721, above 10 µM; in the series on HL-60, above 10 µM; in the series on A549, above 10 µM. In addition, in the series with RAW264.7 [2], the Activity result is listed as “Non-toxic”.
Regarding `C=C1C(=O)[C@]23[C@H](O)[C@H]1CC[C@H]2[C@@]12[C@@H](OCCCC)O[C@@]3(O)[C@@H](O)[C@@H]1C(C)(C)CC[C@@H]2O` (mixture of isomers), the IC50 was found to be 1.5 µM with RAW264.7 [1]; 2.8 µM in the series on SW480; 2.6 µM in the series on MCF7; 3.2 µM in the series with SMMC-7721; 1.2 µM in the series with HL-60; 3.9 µM in the series on A549. For the same compound, the Activity result with RAW264.7 [2] is “Non-toxic”.
With `C=C1[C@H]2CC[C@@H]3[C@](C2)(C(=O)O[C@@H]2CCC(C)(C)[C@H]4[C@H](O)O[C@@H](OC)[C@@]432)[C@@H]1OC(C)=O`, the IC50 is above 25 µM with RAW264.7 [1]; above 10 µM with SW480; above 10 µM in the series with MCF7; above 10 µM in the series on SMMC-7721; above 10 µM with HL-60; above 10 µM in the series with A549. For the same compound, the Activity result with RAW264.7 [2] was “Non-toxic”.
